This passage reports MIC, inhibition and Activity results from ChEMBL document CHEMBL3045793, “The synthesis, anti-inflammatory and antimicrobial activity evaluation of novel thioanalogs of 3,4-dihydrothiopyrimidin-2(1H)-one derivatives of N-aryl urea” (2012).

Values after ≈ are worked out from the molar mass of the structure shown. Active and inactive are the calls of the source. The calls are words filed in the database; no cut-off is given here.

In assay [1] the test system is Fusarium solani. In words: Antifungal activity against Fusarium solani by agar well diffusion method. In kind it is functional. (Agar diffusion results depend on both activity and mobility in agar.)
Another assay has as its system Staphylococcus aureus. As to the kind of experiment: Antibacterial activity against Staphylococcus aureus by agar well diffusion method. In kind it is functional.
Assay [2] has as its system THP-1. In words: Anti-inflammatory activity in Homo sapiens (human) THP1 cells assessed as inhibition of LPS-induced TNF-alpha production preincubated at 10 uM for 30 min before LPS treatment measured after 24 hr by ELISA. The class given is functional.
Assay [3] deals with THP-1. In words: Anti-inflammatory activity in Homo sapiens (human) THP1 cells assessed as inhibition of LPS-induced IL-6 production preincubated at 10 uM for 30 min before LPS treatment measured after 24 hr by ELISA. In kind it is functional. On the technique in general: In an ELISA, binding on a coated surface is turned into a signal by an enzyme label.
Assay [4] relates to Aspergillus flavus. In words: Antifungal activity against Aspergillus flavus by agar well diffusion method. In kind it is functional.
In assay [5] the test system is Escherichia coli. As to the kind of experiment: Antibacterial activity against Escherichia coli by agar well diffusion method. The class given is functional.
Another assay concerns Aspergillus niger. As to the kind of experiment: Antifungal activity against Aspergillus niger by agar well diffusion method. The class given is functional.
For assay [6], the system named is Candida albicans. In words: Antifungal activity against Candida albicans by agar well diffusion method. The class given is functional.
A further assay deals with Salmonella typhimurium. In words: Antibacterial activity against Salmonella enterica subsp. enterica serovar Typhimurium by agar well diffusion method. The class given is functional.
The test system of the next assay is Bacillus subtilis. As to the kind of experiment: Antibacterial activity against Bacillus subtilis by agar well diffusion method. In kind it is functional.
In assay [7] the test system is Escherichia coli. As to the kind of experiment: Antibacterial activity against Escherichia coli up to 200 ug/ml by agar well diffusion method. The class given is functional, organism-based.
The subject of assay [8] is Aspergillus flavus. As to the kind of experiment: Antifungal activity against Aspergillus flavus up to 200 ug/ml by agar well diffusion method. The class given is functional, organism-based.
The test system of assay [9] is Candida albicans. As to the kind of experiment: Antifungal activity against Candida albicans up to 200 ug/ml by agar well diffusion method. In kind it is functional, organism-based.
Assay [10] deals with Fusarium solani. As to the kind of experiment: Antifungal activity against Fusarium solani up to 200 ug/ml by agar well diffusion method. In kind it is functional, organism-based.

As for `CCOC(=O)C1=C(C)NC(=S)NC1c1ccc(NC(=S)Nc2ccccc2OC(F)(F)F)cc1` (centres undefined), the minimum inhibitory concentration (MIC) against Fusarium solani [1] amounted to 10 µg/mL (≈ 19.6 µM); against Staphylococcus aureus, 45 µg/mL (≈ 88.1 µM); against Aspergillus flavus [4] it was 15 µg/mL (≈ 29.4 µM); against Escherichia coli [5], 35 µg/mL (≈ 68.6 µM); in the assay on Aspergillus niger, 30 µg/mL (≈ 58.8 µM); in the assay with Candida albicans [6], 10 µg/mL (≈ 19.6 µM). Moreover, the minimal inhibitory concentration (MIC) was 10 µg/mL (≈ 19.6 µM) in the assay on Salmonella typhimurium and 20 µg/mL (≈ 39.2 µM) against Bacillus subtilis. Also, the figures for the inhibition at 10 µM with THP-1 [2] and in the assay on THP-1 [3] were 27% and 54%, respectively.

With `CCOC(=O)C1=C(C)NC(=S)NC1c1ccc([N+](=O)[O-])cc1` (centres undefined), the minimum inhibitory concentration (MIC) was 75 µg/mL (≈ 233 µM) against Fusarium solani [1]; 40 µg/mL (≈ 124 µM) against Staphylococcus aureus; 65 µg/mL (≈ 202 µM) in the assay with Aspergillus flavus [4]; 45 µg/mL (≈ 140 µM) in the assay on Escherichia coli [5]; 65 µg/mL (≈ 202 µM) against Aspergillus niger; 30 µg/mL (≈ 93.4 µM) against Candida albicans [6]. Further, the MIC is 30 µg/mL (≈ 93.4 µM) in the assay with Salmonella typhimurium and 55 µg/mL (≈ 171 µM) with Bacillus subtilis. Also, the values for the inhibition at 10 µM in the assay with THP-1 [2] and in the assay with THP-1 [3] were 0% and 3%, respectively.

Take `CCOC(=O)C1=C(C)NC(=S)NC1c1ccc(NC(=S)Nc2cc(F)cc(F)c2)cc1` (centres undefined): the MIC stood at 65 µg/mL (≈ 141 µM) in the assay with Staphylococcus aureus, 85 µg/mL (≈ 184 µM) against Aspergillus niger, 90 µg/mL (≈ 195 µM) with Salmonella typhimurium and 90 µg/mL (≈ 195 µM) against Bacillus subtilis. Further, the inhibition at 10 µM was determined as 55% with THP-1 [2] and 82% in the assay on THP-1 [3]. Besides, the result with Escherichia coli [7], in the assay with Aspergillus flavus [8], in the assay with Candida albicans [9] and in the assay on Fusarium solani [10] was inactive.

For the compound `CCOC(=O)C1=C(C)NC(=S)NC1c1ccc(NC(=S)Nc2cc(C(F)(F)F)ccc2Cl)cc1` (centres undefined), the MIC in the assay on Staphylococcus aureus was 90 µg/mL (≈ 170 µM); against Escherichia coli [5], 80 µg/mL (≈ 151 µM); against Aspergillus niger, 90 µg/mL (≈ 170 µM); in the assay on Candida albicans [6], 85 µg/mL (≈ 161 µM); against Salmonella typhimurium it was 90 µg/mL (≈ 170 µM); against Bacillus subtilis it was 85 µg/mL (≈ 161 µM). Besides, the results for the inhibition at 10 µM in the assay on THP-1 [2] and in the assay on THP-1 [3] were 78% and 96%, respectively. Further, the outcome in the assay on Aspergillus flavus [8] and in the assay with Fusarium solani [10] was inactive.

On to `CCOC(=O)C1=C(C)NC(=S)NC1c1ccc(NC(=S)Nc2ccc(C(C)C)cc2)cc1` (centres undefined), for which the minimal inhibitory concentration (MIC) in the assay with Fusarium solani [1] is 70 µg/mL (≈ 149 µM); against Staphylococcus aureus it was 70 µg/mL (≈ 149 µM); against Aspergillus flavus [4], 95 µg/mL (≈ 203 µM); against Escherichia coli [5] it was 90 µg/mL (≈ 192 µM); in the assay on Aspergillus niger, 80 µg/mL (≈ 171 µM); in the assay with Candida albicans [6] it was 80 µg/mL (≈ 171 µM). The values for the MIC with Salmonella typhimurium and in the assay on Bacillus subtilis were 90 µg/mL (≈ 192 µM) and 55 µg/mL (≈ 117 µM), respectively. In addition, the inhibition at 10 µM with THP-1 [2] turned out to be 61%; with THP-1 [3] it was 90%.

With `CCOC(=O)C1=C(C)NC(=S)NC1c1ccc(NC(=S)Nc2c(C)cccc2Cl)cc1` (centres undefined), the MIC with Fusarium solani [1] turned out to be 60 µg/mL (≈ 126 µM); against Staphylococcus aureus, 40 µg/mL (≈ 84.2 µM); in the assay with Aspergillus flavus [4], 60 µg/mL (≈ 126 µM); against Escherichia coli [5] it was 65 µg/mL (≈ 137 µM); in the assay on Aspergillus niger it was 90 µg/mL (≈ 189 µM); against Candida albicans [6] it was 65 µg/mL (≈ 137 µM). For the same compound, the minimum inhibitory concentration (MIC) against Salmonella typhimurium was found to be 65 µg/mL (≈ 137 µM); against Bacillus subtilis, 80 µg/mL (≈ 168 µM). Further, the inhibition at 10 µM with THP-1 [2] was found to be 32%; with THP-1 [3], 55%.

In the case of `Clc1ccc(COC(Cn2ccnc2)c2ccc(Cl)cc2Cl)c(Cl)c1` (centres undefined) [MICONAZOLE], the minimal inhibitory concentration (MIC) stood at 15 µg/mL (≈ 36 µM) against Fusarium solani [1], 20 µg/mL (≈ 48.1 µM) in the assay on Aspergillus flavus [4], 20 µg/mL (≈ 48.1 µM) against Aspergillus niger and 25 µg/mL (≈ 60.1 µM) with Candida albicans [6].

Take `CCOC(=O)C1=C(C)NC(=S)NC1c1ccc(NC(=S)Nc2c(F)cccc2C(F)(F)F)cc1` (centres undefined): the minimal inhibitory concentration (MIC) was 45 µg/mL (≈ 87.8 µM) with Fusarium solani [1]; 35 µg/mL (≈ 68.3 µM) in the assay on Staphylococcus aureus; 80 µg/mL (≈ 156 µM) in the assay on Aspergillus flavus [4]; 40 µg/mL (≈ 78 µM) against Escherichia coli [5]; 30 µg/mL (≈ 58.5 µM) against Aspergillus niger; 55 µg/mL (≈ 107 µM) in the assay with Candida albicans [6]. Moreover, the MIC in the assay with Salmonella typhimurium is 45 µg/mL (≈ 87.8 µM); in the assay on Bacillus subtilis it was 55 µg/mL (≈ 107 µM). Also, the inhibition at 10 µM in the assay with THP-1 [2] was determined as 0%; in the assay with THP-1 [3], 30%.

For `CCOC(=O)C1=C(C)NC(=S)NC1c1ccc(NC(=S)Nc2ccc(C(F)(F)F)cc2)cc1` (centres undefined), the minimum inhibitory concentration (MIC) against Fusarium solani [1] came to 10 µg/mL (≈ 20.2 µM); against Staphylococcus aureus, 10 µg/mL (≈ 20.2 µM); against Aspergillus flavus [4], 15 µg/mL (≈ 30.3 µM); with Escherichia coli [5], 10 µg/mL (≈ 20.2 µM); with Aspergillus niger, 10 µg/mL (≈ 20.2 µM); against Candida albicans [6], 10 µg/mL (≈ 20.2 µM). In addition, the figures for the MIC with Salmonella typhimurium and against Bacillus subtilis were 30 µg/mL (≈ 60.7 µM) and 15 µg/mL (≈ 30.3 µM), respectively. Besides, the inhibition at 10 µM with THP-1 [2] was found to be 8%; in the assay on THP-1 [3], 48%.

In the case of `CCOC(=O)C1=C(C)NC(=S)NC1c1ccc(NC(=S)Nc2ccc(C(F)(F)F)cc2Cl)cc1` (centres undefined), the minimum inhibitory concentration (MIC) in the assay with Fusarium solani [1] is 90 µg/mL (≈ 170 µM); in the assay on Staphylococcus aureus, 90 µg/mL (≈ 170 µM); against Aspergillus flavus [4] it was 60 µg/mL (≈ 113 µM); against Escherichia coli [5], 65 µg/mL (≈ 123 µM); in the assay on Aspergillus niger, 55 µg/mL (≈ 104 µM); against Candida albicans [6], 50 µg/mL (≈ 94.5 µM). In addition, the MIC against Salmonella typhimurium and against Bacillus subtilis was 55 µg/mL (≈ 104 µM) each time. The inhibition at 10 µM with THP-1 [2] amounted to 55%; in the assay with THP-1 [3], 68%.

The term MIC denotes the least concentration at which growth counts as inhibited. The inhibition is the relative decrease from the control value, in per cent.
